Like-named read-outs stand apart in the source and are kept apart here.
Biological target: CDK4/cyclin D1 (Homo sapiens (Human), UniProt P11802)
Assay: CDK4/cyclin D1 enzymatic activity assay (Protocol A, Lance TR-FRET)
Format: biochemical
Details: CDK4/cyclin D1, 175 nM pRb152, 3 μM ATP
Description: A 384-well microtiter Lance TR-FRET (time-resolved-fluorescence energy transfer) endpoint assay was used for CDK4/cyclin D1 kinase activity measurements. The same assay was used for IC50 determination of small molecule inhibitors. In general, the kinase reactions were carried out in 30 μL volumes in the reaction solution containing the following: 2 μL compound (in 20% DMSO), 18 uL CDK4/cyclin D1 in Assay Buffer (50 mM HEPES, pH 7.5, 5 mM MgCl2, 2 mM MnCl2, 1 mM DTT, 0.05% BSA, 0.02% Tween-20), 10 μL of the mixture of pRb152 and ATP. The final reaction mixture contains compound (inhibitor) with the concentration varying from […], 2% DMSO, 0.3 nM CDK4/cyclin D1, 175 nM pRb152, and 3 μM ATP (Amersham Pharmacia, Cat. No. 27-2056-01). All reactions were run at room temperature in 384-well white flat-bottom OptiPlates (Perkin Elmer, Cat. No. 6007290) for 60 min then were quenched by the addition of 10 μL of 120 mM EDTA. The signals were captured by the addition of 40 μL of the Detection Solution containing the following: Detection Buffer (50 mM HEPES, pH 7.5, 30 mM EDTA, 0.1% Triton x-100, 0.05% BSA), 70 ng/mL anti-phospho-pRb(S780) (Cell Signaling Technology, Cat. No. 9307S), 1 nM Lance Eu-W1024-Rabbit anti-IgG (Perkin Elmer, Cat. No. AD0082), and 20 nM SureLight™ Allophycocyanin-Streptavidin (Perkin Elmer, Cat. No. CR130-100). The resulted solutions were incubated at room temperature for 2 hours before read on the Evision Multilabel Reader (Perkin Elmer, Envision 2102-0010). Note: IC50<0.005 nM or IC50>10 μM indicates the true IC50 is out of detection range.
CDK4/cyclin D1 recombinant protein used in the enzymatic activity assay was prepared by coexpressing pDEST10-CDK4 (N-terminal His6) and pFastBacDual-GST-hCyclinD1 viruses in Sf21 cells. The overexpressed protein was purified by Ni-NTA affinity pull down to >80% pure by Sizing HPLC.

[1] = 60 min, room temperature, read-out: IC50 against CDK4 kinase
[2] = bound stated, read-out: IC50 values against CDK4

CDK4/cyclin D1, sequence (P11802 whole entry): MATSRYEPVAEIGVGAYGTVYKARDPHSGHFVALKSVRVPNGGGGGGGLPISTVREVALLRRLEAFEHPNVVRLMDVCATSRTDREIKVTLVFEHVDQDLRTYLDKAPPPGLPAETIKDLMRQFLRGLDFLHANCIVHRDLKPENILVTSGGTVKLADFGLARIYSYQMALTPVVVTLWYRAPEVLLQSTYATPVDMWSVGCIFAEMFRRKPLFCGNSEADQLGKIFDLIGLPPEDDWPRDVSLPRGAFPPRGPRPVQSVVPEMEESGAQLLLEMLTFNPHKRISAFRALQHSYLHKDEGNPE
CDK4/cyclin D1, sequence (P24385 whole entry partner): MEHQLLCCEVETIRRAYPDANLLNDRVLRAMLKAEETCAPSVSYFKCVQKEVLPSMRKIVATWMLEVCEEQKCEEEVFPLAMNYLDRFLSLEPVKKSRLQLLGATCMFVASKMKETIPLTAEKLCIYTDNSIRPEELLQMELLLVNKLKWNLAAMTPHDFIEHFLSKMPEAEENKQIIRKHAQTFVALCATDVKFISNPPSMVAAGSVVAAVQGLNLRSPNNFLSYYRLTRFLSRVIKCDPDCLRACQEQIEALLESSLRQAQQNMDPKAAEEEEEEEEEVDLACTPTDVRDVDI

Row | SMILES | IC50 [1] | IC50 [2]
1 | Cc1n[nH]c(C)c1-c1cc(C(=O)c2nc3ccc(N4CCNCC4)nc3[nH]2)ccn1 [Example 169, [2-(3,5-Dimethyl-1H-pyrazol-4-yl)-pyridin-4-yl]-(5-piperazin-1-yl-3H-imidazo[4,5-b]pyridine-2-yl)-methanone] | 260 nM | 
2 | COc1cccc(F)c1-c1cc(C(=O)c2nc3ccc(N4CCC(N(C)C)CC4)cc3[nH]2)ccn1 [Example 50, [6-(4-Dimethylamino-piperidin-1-yl)-1H-benzoimidazol-2-yl]-[2-(2-fluoro-6-methoxy-phenyl)-pyridin-4-yl]-methanone] |  | < 10000 nM
3 | Cc1n[nH]c(C)c1-c1cc(C(=O)c2nc3ccc(N4CCC(N(C)C)CC4)cc3[nH]2)ccn1 [Example 129, [6-(4-Dimethylamino-piperidin-1-yl)-1H-benzoimidazol-2-yl]-[2-(3,5-dimethyl-1H-pyrazol-4-yl)-pyridin-4-yl]-methanone] |  | < 10000 nM
4 | CN(C)C1CCN(c2ccc3nc(C(=O)c4ccnc(-c5cncc6ccccc56)c4)[nH]c3n2)CC1 [Example 135, [5-(4-Dimethylamino-piperidin-1-yl)-3H-imidazo[4,5-b]pyridin-2-yl]-(2-isoquinolin-4-yl-pyridin-4-yl)-methanone] | 12 nM | < 10000 nM
5 | CN(C)C1CCN(c2ccc3nc(C(=O)c4ccc(C#N)c(-c5cncc6[nH]ccc56)c4)[nH]c3n2)CC1 [Example 140, 4-[5-(4-Dimethylamino-piperidin-1-yl)-3H-imidazo[4,5-b]pyridine-2-carbonyl]-2-(1H-pyrrolo[2,3-c]pyridin-4-yl)-benzonitrile] | 4 nM | 
6 | COc1cccc(F)c1-c1cc(C(=O)c2nc3cc(CN4CCOCC4)ccc3[nH]2)ccn1 [Example 73, [2-(2-Fluoro-6-methoxy-phenyl)-pyridin-4-yl]-(5-morpholin-4-ylmethyl-1H-benzoimidazol-2-yl)-methanone] |  | < 10000 nM
7 | O=C(c1ccnc(-c2cncc3ccccc23)c1)c1nc2ccc(N3CCCNCC3)nc2[nH]1 [Example 163, (5-[1,4]Diazepan-1-yl-3H-imidazo[4,5-b]pyridine-2-yl)-(2-isoquinolin-4-yl-pyridin-4-yl)-methanone] | 14 nM | 
8 | COc1ccc(F)c(F)c1-c1cc(C(=O)c2nc3cc(N4CCC(N(C)C)CC4)ccc3[nH]2)ccn1 [Example 103, [2-(2,3-Difluoro-6-methoxy-phenyl)-pyridin-4-yl]-[5-(4-dimethylamino-piperidin-1-yl)-1H-benzoimidazol-2-yl]-methanone] | 60 nM | < 10000 nM
9 | CCNCc1cncc(-c2cc(C(=O)c3nc4cc(OC)c(OC)cc4[nH]3)ccc2C#N)c1 [Example 101, 4-(5,6-Dimethoxy-1H-benzoimidazole-2-carbonyl)-2-(5-ethylaminomethyl-pyridin-3-yl)-benzonitrile] |  | < 10000 nM
10 | COc1ccc(F)c(F)c1-c1cc(C(=O)c2ncc[nH]2)ccn1 [Example 66, [2-(2,3-Difluoro-6-methoxy-phenyl)-pyridin-4-yl]-(1H-imidazol-2-yl)-methanone] |  | < 10000 nM
11 | CN1CCC(NC(=O)c2ccc3nc(C(=O)c4ccnc(-c5cncc6ccccc56)c4)[nH]c3c2)CC1 [Example 99, 2-(2-Isoquinolin-4-yl-pyridine-4-carbonyl)-3H-benzoimidazole-5-carboxylic acid (1-methyl-piperidin-4-yl)-amide] | 26 nM | < 10000 nM
12 | CN1CCN(Cc2ccc3[nH]c(C(=O)c4ccnc(-c5cncc6ccccc56)c4)nc3c2)CC1 [Example 86, (2-Isoquinolin-4-yl-pyridin-4-yl)-[5-(4-methyl-piperazin-1-ylmethyl)-1H-benzoimidazol-2-yl]-methanone] | 27 nM | 
13 | O=C(c1ccnc(-c2cncc3ccccc23)c1)c1nc2ccc(N3CCNCC3)nc2[nH]1 [Example 164] | 24 nM | 
14 | Cc1nn(C)c(C)c1-c1cc(C(=O)c2nc3ccc(N4CC5(CNC5)C4)nc3[nH]2)ccc1C#N [Example 207, 4-[5-(2,6-Diaza-spiro[3.3]hept-2-yl)-3H-imidazo[4,5-b]pyridine-2-carbonyl]-2-(1,3,5-trimethyl-1H-pyrazol-4-yl)-benzonitrile] |  | < 10000 nM

Reference: patent US8598217B2, “Imidazole derivatives and their use as modulators of cyclin dependent kinases” (Astex Therapeutics Ltd., priority 2009, dated 2013)
